Measured values from PMC9894685, “Abscisic acid agonists suitable for optimizing plant water use” (Frontiers in Plant Science, 2023).
Several values for one entry are separate records, joined by “and”; a condition that tells them apart may be missing. Equal values may be shown once. Read-outs that look alike come from different tables or passages of the source. Each block holds one compound with its values, some of them ahead of it.

Experiments:
RCAR11-ABI2 = experiment: Yeast ABA signal pathway LUC reporter, RCAR11-ABI2; type: cell-based, Arabidopsis thaliana
Description: The yeast cultivation and the life luciferase assay were performed as described ([Ruschhaupt et al., 2019]). Briefly, the reporter yeast expressing an ABA-dependent luciferase gene (LUC) was transformed with different combinations of ABA signaling components as indicated. Golden gate cloning ([Binder et al., 2014]) was used to construct pYEAST_LII_5‐6_CEN_URA vector with TDH3 promoter and TDH1 terminator (tTDH1), pYEAST_LII_1‐2_CEN_LEU vector with GK1 promoter and tTDH1, and pYEAST_LII_3‐4_CEN_TRP with the GAL1 promoter (pGAL1) and tTDH1 to express RCARs, PP2Cs, and OST1 (SnRK2.6), respectively ([Ruschhaupt et al., 2019]). The expression of ABF2 in yeast relies on a modified pGREG503 vector, in which pGAL1 ([Jansen et al., 2005]) was replaced by the ADH1 promoter.
Colonies of freshly transformed cells were inoculated in 0.5 mL supplemented synthetic dextrose (SD) medium and incubated at 30°C in a gyratory shaker (Thermoshake-THO500, Gerhardt, Königswinter, Germany) at 200 rpm for 16-18 h. After overnight growth, the cells were harvested and washed in SD medium followed by inoculation in SD medium containing 2% galactose for induction of SnRK2 kinases under the control of the GAL1 promoter and supplementation with ligands at indicated concentrations, to an OD600 of 0.2 in flat-bottom 96-well plates (CytoOne, Starlab, Hamburg, Germany). Yeast cultures were incubated at 30°C and 200 rpm for 16-18 h before determination of LUC activity and cell density. Light emission of yeasts was detected in a HIDEX plate luminometer (HIDEX, Turku, Finland) after injection of 100 µL freshly prepared luciferin substrate (1 mM D-luciferin, Promega) provided in 100 mM citric acid, pH 3 ([Leskinen et al., 2003]) for 5 s and was corrected for background. The LUC activity was normalized to the cell density (OD600) measured in 96-well flat plates (Sarstedt, Nümbrecht, Germany). LUC activity is given as the ratio of light emission to OD600 in counts per second.

HAB1 with RCARs = experiment: In vitro receptor assay, HAB1 in the presence of RCARs; type: biochemical, Arabidopsis thaliana; conditions: HAB1, in the presence of RCARs and saturating ABA levels (1 mM)
Description: (§1) Expression, purification, and analysis of RCAR and PP2C proteins were performed essentially as described ([Ruschhaupt et al., 2019]). Briefly, the ABA receptors RCAR1, RACR8, and RCAR11 were expressed with an aminoterminal histidine tag using the pSEVA431_LII_6xHIS::RCAR1/RCAR8/RCAR11. ABA coreceptors were expressed as histidine-tagged fusions with the maltose-binding protein using the pSEVA431_LII_6xHIS::MBP::ABI2/HAB1. All constructs were transformed and expressed in Escherichia coli strain BL21 and purified to homogeneity according to supplier’s instruction (GE Healthcare, Chicago, USA). The receptor assay was performed with 100 nM PP2C and a two-fold molar excess of RCAR. Values are means ± SD of three replicates. […] The maximum inhibition was set to 100% in the figures. The phosphatase activity was measured using 4-methylumbelliferyl-phosphate as a substrate ([Meinhard and Grill, 2001]). The increase in fluorescence was recorded over 25 min with excitation and emission wavelengths at 360 and 460 nm, respectively, using a Synergy 2 plate reader (Bio-Tec, Winooski, USA).

RCAR1-ABI2 = target: T1, RCAR1-ABI2 (Arabidopsis thaliana, UniProt O04719+Q84MC7); experiment: In vitro phosphatase assay, ABI2 with RCAR1; type: biochemical
T1 construct: 6xHis (N); made in house; host or cells: Escherichia coli BL21
T1 sequence (Q84MC7 1-187): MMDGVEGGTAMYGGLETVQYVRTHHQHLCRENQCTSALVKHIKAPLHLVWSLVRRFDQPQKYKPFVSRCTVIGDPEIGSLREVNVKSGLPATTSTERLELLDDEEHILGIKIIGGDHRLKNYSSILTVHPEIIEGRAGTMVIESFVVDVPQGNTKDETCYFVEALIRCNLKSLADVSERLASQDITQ
T1 sequence (O04719 1-423): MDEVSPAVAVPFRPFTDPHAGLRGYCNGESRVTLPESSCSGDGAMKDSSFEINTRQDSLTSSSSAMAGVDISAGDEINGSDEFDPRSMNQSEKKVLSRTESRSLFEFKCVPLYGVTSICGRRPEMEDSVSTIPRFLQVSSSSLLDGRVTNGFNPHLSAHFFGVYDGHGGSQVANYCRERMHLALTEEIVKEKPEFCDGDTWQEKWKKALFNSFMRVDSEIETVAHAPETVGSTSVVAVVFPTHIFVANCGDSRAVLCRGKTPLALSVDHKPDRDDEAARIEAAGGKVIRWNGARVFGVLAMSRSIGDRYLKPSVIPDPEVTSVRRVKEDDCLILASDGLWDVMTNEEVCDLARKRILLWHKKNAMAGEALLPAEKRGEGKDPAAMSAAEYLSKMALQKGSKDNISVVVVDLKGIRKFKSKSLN
Description: as §1

ABI2 with RCARs = experiment: In vitro receptor assay, ABI2 in the presence of RCAR1, RCAR8 or RCAR11; type: biochemical, Arabidopsis thaliana
Description: as §1

Arabidopsis plants [1] = experiment: Progressive drought experiment: growth, water consumption, WUE; type: in vivo, Arabidopsis thaliana; conditions: 30 µM
Description: The progressive drought experiment was performed as described ([Yang et al., 2016]). Briefly, 18-day-old Arabidopsis plantlets grown under well-watered and short-day conditions (8 h light with 150 µmol m^-2 s^-1 PAR, 22°C, 50% relative humidity, and 16 h dark with 17°C, 60% relative humidity) were transferred to 0.2 L pots loaded with water-saturated soil (33.4 ± 0.4 g dry soil with 148 ± 2 g water). At the onset of the progressive drought (day 0), water was withheld, and a sealed soil surface prevented evaporation. A slowly increasing water deficit was achieved by transpirational water loss from plants. The progressive drought experiment lasted for eight weeks until mock-treated plants had consumed all the plant-usable water. […] For measuring growth and water consumption, leaf rosettes were regularly photographed, and the pots were weighed. The projected leaf area of Arabidopsis rosettes was analyzed by using Photoshop Elements software (Adobe, San Jose, USA). The consumed water was calculated as the difference in pot weight between day 0 and the designated days. The retained water was expressed as the difference between the pot weight at the end of the drought (day 57) and the weight of the loaded dry soil. Above-ground material was harvested at day 57, and the biomass was determined after drying the material for three days at 60°C to achieve constant weight. WUE was calculated as the ratio of above-ground dry biomass to consumed water. The data for the mock- and ABA-treated plants in the progressive drought experiment were already published ([Yang et al., 2019]).

wheat plants = experiment: Foliar administration and thermal imaging of leaf temperature, wheat; type: in vivo, Triticum aestivum
Description: (§2) Thermal imaging was carried out as described ([Yang et al., 2016]). An assessment of the efficacy of ABA and CCPs was conducted by using 35-day-old Arabidopsis and 30-day-old wheat plants. Stock solutions (10 mM) of CCPs and ABA dissolved in dimethyl sulfoxide (DMSO) were diluted to the respective ligand concentrations (10, 30, 100 µM) in water containing 0.01% (v/v) Tween 20. Aqueous Tween 20 solutions supplemented with 0.1%, 0.3%, and 1% DMSO served for mock treatments. The solutions were sprayed onto the leaf surface until the run-off of droplets. One day after application (unless otherwise indicated), thermal imaging was conducted using the InfraTec instrument (IR-TCM 384, InfraTec, Dresden, Germany). The leaf temperature of Arabidopsis was determined as the average temperature of all leaves. The leaf temperature of wheat was determined as described ([Yang et al., 2019]).

Arabidopsis plants [2] = test system: Arabidopsis plants; parameters: method as in Yang et al., 2019; conditions: ref Yang et al., 2019, cited from earlier work
Arabidopsis plants [3] = experiment: Foliar administration and thermal imaging of leaf temperature (transpiration), Arabidopsis; type: in vivo, Arabidopsis thaliana
Description: as §2

pig liver esterase = experiment: De-esterification of CCPs by pig liver esterase (HPLC); type: in vitro ADME; conditions: 4 nkat pig liver esterase, 2 h, 25°C
From the text: (S)-ABA was purchased from CHEMOS (www.chemos.de). Other chemicals were of the highest purity available and obtained from SigmaAldrich (www.sigmaaldrich.com), ROTH (www.carlroth.com), and J. T. Baker (http://www.avantormaterials.com) unless otherwise indicated. The Arabidopsis (Arabidopsis thaliana) accession Col-0 was received from the Nottingham Arabidopsis Stock Center. The elite wheat (Triticum aestivum) cultivar, Elixer, was provided from Bayerische Landesanstalt für Landwirtschaft, Freising. ABA and CCPs were dissolved in DMSO and diluted to designated concentrations before administration. For de-esterification, 0.2 µmol CCP was treated with 4 nkat pig liver esterase (Sigma-Aldrich, Burlington, MA, USA) for 2 h at 25°C according to supplier’s instruction.

[4] = test system: Arabidopsis aba2-1 protoplasts; experiment: Transient ABA response in Arabidopsis protoplasts (pRD29B::LUC, RCAR11 and ABI2 effectors); type: cell-based, Arabidopsis thaliana; conditions: aba2-1 protoplasts, 18 h ligand exposure
Description: Preparation of Arabidopsis protoplasts, transfection of the effector DNA, and analysis of LUC activity were performed as described ([Tischer et al., 2017]). In essence, 10^5 mesophyll protoplasts from leaves of the ABA deficient mutant aba2-1 ([Schwartz et al., 1997]) were transfected with 4 µg DNA of the pRD29B::LUC construct as an ABA-responsive reporter and 3 µg of p35S::GUS (β-glucuronidase reporter gene) expression cassette as an internal control for normalization. In addition, 3 µg p35S::RCAR11 or the empty vector with the same expression cassette were co-expressed with 0.1 µg p35S::ABI2 effector constructs ([Tischer et al., 2017]), and the ligand-dependent induction of ABA-responsive reporter expression were assessed after incubation at 22°C. The expression of LUC and GUS was determined 18 h after transfection and ligand administration.

tomato = test system: tomato; parameters: method as in Vaidya et al., 2019; conditions: ref Vaidya et al., 2019; cited from earlier work
wheat = test system: wheat; parameters: method as in Vaidya et al., 2019; conditions: ref Vaidya et al., 2019; cited from earlier work
Arabidopsis = test system: Arabidopsis; parameters: method as in Vaidya et al., 2019; conditions: 50 µM; ref Vaidya et al., 2019; cited from earlier work

SMILES: CC1=CC(=O)CC(C)(C)[C@@]1(O)/C=C/C(C)=C\C(=O)O [ABA, abscisic acid]
LUC reporter induction compared to mock-treated cells (RCAR11-ABI2; 30 µM exogenous ligand, 16 h exposure): approximately eightfold | Residual phosphatase activity (HAB1 with RCARs): 4% | IC50 (RCAR1-ABI2): 100 nM | Residual phosphatase activity (ABI2 with RCARs; ABI2, in the presence of RCARs and saturating ABA levels (1 mM)): 10% | Daily growth reduction (Arabidopsis plants [1]): 1% | Higher leaf temperature compared to the control (wheat plants; 0.1 mM, one day after administration, averaged from six experiments): approximately 0.8 °C | Leaf temperature increase at 100 μM ABA (wheat plants; 24 h, separate experiments run in parallel to the CCPs): 0.6 ± 0.18 °C and 0.9 ± 0.19 °C and 0.6 ± 0.12 °C and 0.9 ± 0.03 °C and 0.9 ± 0.10 °C and 0.9 ± 0.07 °C | Growth of leaf rosettes compared to mock (Arabidopsis plants [2]; 10 µM, for six weeks): indistinguishable | WUE increase (Arabidopsis plants [2]; 10 µM): 14% | Soil water retained at the end of the drought, of initial soil water (Arabidopsis plants [2]; 30 µM, day 57): about 25% | Reduced projected leaf area (Arabidopsis plants [2]; 30 µM, within 19 days): 20% | Growth of leaf rosettes compared to mock (Arabidopsis plants [2]; 30 µM): growth reduction | WUE increase (Arabidopsis plants [2]; 30 µM): 26% | Time until leaf temperature reached starting values (Arabidopsis plants [3]; 10 µM): eight | Time of optimum of inhibited transpiration (Arabidopsis plants [3]; after single administration): between two and four days after administration

Degree of ester-bond cleavage by PLE (conversion into free acid) (pig liver esterase): complete de-esterification | Activity in the in vitro receptor assay after esterase treatment (ABI2 with RCARs; pig liver esterase-treated): comparable activity as CCP2
SMILES: CCCOC(=O)/C=C(\C=C\C(O)(C(C)C)C1(C#N)CC1)CC (stereo not drawn) [CCP3]
Reporter activation after pig liver esterase treatment (RCAR11-ABI2; 30 µM, PLE-treated prior to yeast exposure): comparable to esterase-treated CCP2 and ABA | Growth reduction compared to the control (Arabidopsis plants [1]): about 60% | Leaf temperature increase (Arabidopsis plants [1]; 24 h after the first application): highest temperature increase | Reduction in biomass accumulation compared to the control (Arabidopsis plants [1]; day 57): 60% | Soil water retained at the end of the drought, of initial soil water (Arabidopsis plants [1]; day 57): approximately 75% | Growth of leaf rosettes compared to mock (Arabidopsis plants [1]; three administrations): growth reduction | Leaf temperature increase, activity compared to ABA (wheat plants; 100 μM, 24 h after administration): higher activity than ABA | Leaf temperature increase, activity compared to ABA (Arabidopsis plants [3]; 10, 30, 100 µM, one day after application): almost as active as the non-esterified CCP2 | Activity and persistence of minimized transpiration compared to ABA (Arabidopsis plants [3]; single application 100 µM, recorded for 19 days): more active and persistent than ABA | Induction of ABA signaling compared to ABA [4]: not observed

SMILES: N#Cc1c(C2CC2)cc(CC(=O)NC2(C(=O)O)CCCCC2)cc1C1CC1 [Opabactin]
Efficiency in controlling transpiration compared to ABA (tomato): more efficient than ABA | Activity in controlling transpiration compared to ABA (wheat): comparable activity | Efficacy in elevating leaf temperature (Arabidopsis): ABA-comparable efficacy
